Measurements published in ChEMBL document CHEMBL1126511, “Protein damage caused by a synthetic enediyne core” (Bioorg Med Chem Lett, 1993).

Test system: HCT-116
Test: In vitro cytotoxicity against human colon carcinoma cell line HCT116
Format: functional, cell-based

Work on `O=C1C2=CCC[C@@]1(O)C#C/C=C\C#C[C@@H]2O` yielded an IC50 of 100 nM.
